US5098613A, “Anti-inflammatory agents” (Eli Lilly and Company, priority 1990, dated 1992)
Counter-ions that a name gives are not always drawn.

Columns and labels:
[1] = system: Arachidonic Acid Induced Ear Edema; assay: Arachidonic Acid-Induced Ear Edema Assay; type: in vivo, Female BALB/C mice; conditions: Mus musculus, 1 h, topical, one hour prior to arachidonic acid, read-out: Percent Inhibition of Ear Swelling; for inhibition in vivo at 0.05 %: 0.05% in ethanol gel; for inhibition in vivo at 1 %: 1% in ethanol gel
Experimental: Female BALB/C mice (Charles River; 18-20 rams) were divided into groups of five. Arachidonic acid was dissolved in ethanol at a concentration of 200 mg/ml. Each mouse received 2 mg/ear of arachidonic acid on the inner surface of the right ear. This dose of phlogistic was applied by an automatic pipette in 10 mcl volumes. The left ear (control) received ethanol. Drugs were applied topically in an ethanol-based gel to the entire outer surface of both ears one hour prior to arachidonic acid application. Edema was measured by the increase in ear weight. An hour after arachidonic acid solution or vehicle was applied, an ear sample of 7 mm in diameter was obtained from both ears. Ear edema was calculated by subtracting the […], dividing by the weight of the left/Control ear, and averaging the results for each group of mice according to compound and concentration.

[2] = target: T1, leukotriene B4 specific receptor on the membrane of human neutrophils (Homo sapiens, UniProt Q15722); assay: Inhibition of Binding of ^3 H-LTB4 to Peripheral Human Neutrophils; conditions: 4° C., 10 minutes; for inhibition at 10 µM: drug concentration 10^-5 M, read-out: LTB4 Binding Inhibition; for inhibition at 1 µM: drug concentration 10^-6 M
T1 construct: incubating neutrophils (1×10^7 cells) with 0.1-0.2 nM ^3 H-LTB4; endogenous in cells; host or cells: human peripheral blood neutrophils (buffy coats of two blood donors)
Experimental: The effectiveness of compounds to inhibit the binding of leukotriene B4 to a specific receptor on the membrane of human neutrophils was measured by using an adaptation of a radio-ligand binding assay developed by Goldman and Goetzl, J. Immunol., 129, 1600 (1982). Other investigators have developed similar assays (see, e.g., Kreisle, et al., J. Exp. Med., 157, 628 (1983) and Lin, et al., Prostaglandins, 28, 837 (1984)).
Cells used in the assay were isolated by standard techniques of centrifugation on Ficol-Hypaque, dextran 70 sedimentation and hypotonic lysis. The following procedure was used. Freshly-prepared buffy coat layers from two individuals were obtained from a local blood donor center. The cells were mixed and diluted to 484 ml. with phosphate buffered saline containing heparin (10 units/ml) and heat-inactivated calf serum (5%). This was divided into 20 ml. aliquots and the aliquots layered on top of Ficoll-Paque (12 ml.). The material was then centrifuged at 500 g. for 40 minutes at room temperature. The resulting upper layer of platelets and mononuclear cells was discarded. The lower layer containing erythrocytes and neutrophils was retained. Buffer was added (1 ml. per 4 ml. of lower layer) and the suspension mixed. For each milliliter of this mixture, 0.33 ml. of 6% Macrodex was added. After stirring, the cels were allowed to sediment for 1 hour at 37° C. The resulting erythrocyte pellet was discarded and the neutrophil enriched supernatant fluid centrifuged at 500 g. for 10 minutes at 4° C. Erythrocytes still present in this cell pellet were lysed by incubating the cells with 5-8 ml. ice-cold distilled water for 30-45 seconds. Subsequently, the volume was made up to 50 ml. by addition of ice-cold buffer and the cells resuspended. The suspension was then centrifuged at 300 g. for 10 minutes at 4° C. The cells were finally resuspended at a cell density of 2×10^7 cells/ml in the assay buffer. This buffer Consisted of Hanks' balanced salt solution and 0.1% ovalbumin (pH 7.3).
The radio-ligand binding assay was conducted by incubating neutrophils (1×10^7 cells) with 0.1-0.2 nM ^3 H-LTB4 (sp. act. 150-220 Curies/mmol) and test compound (1×10^-5 M and 1×10^-6 M) for 10 minutes at 4° C. The amount of bound ^3 H-LTB4 was then measured and compared with the amount bound in the absence of test compound. The assay was carried out in microcentrifuge tubes by adding first 10 μl test compound dissolved in DMSO, followed by adding 20 μl ^3 H-LTB4 diluted in assay buffer, and finally adding 500 μl of the cell suspension pension. At the end of the 10 minutes incubation, 300 μl of a mixture of dibutyl and dinonyl phthalate (7:2) were added and the tubes centrifuged for 2 minutes in a microcentrifuge. The radioactivity bound to the cell pellet was measured by scintillation spectroscopy. Appropriate corrections for nonspecific bonding of ^3 H-LTB4 were made.

[3] = system: IL-1 induced T-cell Proliferation; assay: Anti IL-1 Activity (Thymocyte Assay): suppression of IL-1 induced T-cell proliferation; type: cell-based, C3H/HeJ male mice; conditions: mouse thymocytes, 48 hours, read-out: Percent T-cell suppression; for inhibition at 1 µg/mL: 1 mcg/ml; for inhibition at 10 µg/mL: 10 mcg/ml
Experimental: Thymus from 3-4 week old C3H/HeJ male mice and were passed through a #100 mesh screen to make a single cell suspension. The cells were suspended in RPMI-1640 supplemented with 2×10^-5 M 2-mercaptoethanol, 3% fetal calf serum, and 1% Penicillin/Streptomycin. The cell suspension was placed in a tissue culture flask and incubated at 37° C. in 5% carbon dioxide in air for 1-2 hours. The thymocytes were decanted, leaving adherent cells behind, and the liquid was centrifuged at 1400 rpm for 10 minutes. After decanting the supernatant, the cells were resuspended and counted with a hemocytometer. The density was adjusted to […]. Fifty μ1 of the suspension were added to each well of a 96-well microtiter plate, followed by the addition of 25 μl of PHA and 25 μl IL-1 (1:25 dilution of a 10 mcg/ml stock solution) per well.
Each compound to be tested was dissolved in 30% DMSO/70% PBS to make a stock solution of 1 mg/ml. Fifteen μl of each compound were added to 300 μl of media in the serial dilution plate. Twenty-five μl of each drug were added to the test plate in quadruplicate wells across the plate. The plate was incubated at 37° C. in 5% carbon dioxide in air for 48 hours. The wells were pulsed with tritiated thymidine (5 μCi.well) for 4 hours before harvesting on a Skatron cell harvester. The filter discs were placed in mini-vials, scintillation fluid (Tol-Pop) was added, and the vials counted. The percent of counts for each vial compared with control samples wherein no compound was added (vehicles only) was determined for each compound and are reported as Table III below as the percent T-ce1 suppression.

T1 sequence (Q15722 whole entry): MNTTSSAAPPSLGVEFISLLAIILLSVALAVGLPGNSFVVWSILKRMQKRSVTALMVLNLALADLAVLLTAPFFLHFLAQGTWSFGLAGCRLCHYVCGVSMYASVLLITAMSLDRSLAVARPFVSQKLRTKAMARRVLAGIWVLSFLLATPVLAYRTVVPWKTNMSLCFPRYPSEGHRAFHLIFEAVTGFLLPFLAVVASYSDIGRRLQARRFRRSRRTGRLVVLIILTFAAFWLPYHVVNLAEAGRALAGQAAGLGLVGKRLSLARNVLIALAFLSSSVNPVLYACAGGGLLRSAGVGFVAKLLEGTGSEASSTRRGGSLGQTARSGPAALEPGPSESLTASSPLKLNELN

SMILES | inhibition at 10 µM [2] [%] | inhibition at 1 µM [2] [%] | inhibition in vivo at 0.01 % ([1]; 0.01% in ethanol gel) [%] | inhibition in vivo at 0.05 % [1] [%] | inhibition at 1 µg/mL [3] [%] | inhibition at 10 µg/mL [3] [%] | inhibition in vivo at 1 % [1] [%]
CCc1cc(C(C)=O)c(OC)cc1OCc1cccc(C#N)c1 [Example 114] | 52 | 8 | 44 | 40 |  |  | 
C=CCc1cc(C(C)=O)c(O)cc1OCc1cccc(-c2nnn(C)n2)c1 [Example 121] | 27 to 38 | 34 to 38 |  | 0 |  |  | 
C=CCc1cc(C(C)=O)c(O)cc1OCCCCCCCC [Example 38, 4-(Octyloxy)-5-allyl-2-hydroxyacetophenone] | 16 | 8 |  |  | -8 | 28 | 
C=CCc1cc(C(C)=O)c(O)cc1OCCCCN(C)C [Example 76, 4-[4-(Dimethylamino)butoxy]-2-hydroxy-5-allylacetophenone hydrochloride] | 0 | 0 |  |  | 39 | 79 | 
CCc1cc(C(=O)c2ccccc2C(=O)O)c(O)cc1OCCCCC#N [Example 89, 2-[4-(4-Cyanobutoxy)-5-ethyl-2-hydroxybenzoyl]benzoic acid] | 11 | 15 |  |  | 9 | 39 | 
C=CCc1cc(C(C)=O)c(O)cc1OCCCCc1nn[nH]n1 [Example 109, 2-Hydroxy-5-allyl-4-[4-(lH-tetrazol-5-yl)-butoxy]acetophenon] | 41 | 3 |  |  | 7 | 56 | 
CCc1cc(C(=O)CCCCC(=O)O)c(O)cc1OCCCCC#N [Example 90, 6-[(4-Cyanobutoxy)-5-ethyl-2-hydroxybenzene]-6-oxohexanoic acid] | 1 | -2 |  |  | 3 | 47 | 
C=CCc1cc(C(C)=O)c(O)cc1OCCCCCCSC [Example 78, 2-Hydroxy-4-[6-(methylthio)hexyloxy]-5-allylaoetophenone] | 78 | 38 |  |  |  |  | 46

Further lines, with some results ahead:

inhibition at 10 µM [2] [%] | inhibition at 1 µM [2] [%] | SMILES | inhibition in vivo at 0.01 % ([1]; 0.01% in ethanol gel) [%] | inhibition in vivo at 0.05 % [1] [%] | inhibition at 1 µg/mL [3] [%] | inhibition at 10 µg/mL [3] [%] | inhibition in vivo at 1 % [1] [%]
10 | 6 | CC(=O)c1cc(CC(C)O)c(OCCCCC#N)cc1O (centres unmarked) [Example 125, 5-[4-Acetyl-5-hydroxy-2-(2-hydroxypropyl)-phenoxy]pentanenitrile] |  |  | 30 | 85 | 
12 to 16 | 7 to 8 | C=CCc1cc(C(C)=O)c(OC)cc1OCCCCC#N [Example 115, 5-(4-Acetyl-5-methoxy-2-allylphenoxy)pentanenitrile] |  |  | 29 | 96 | 
0 | 0 | CCCc1cc(C(C)=O)c(O)cc1OCCCCC(=O)O [Example 132, 5-(4-Acetyl-5-hydroxy-2-propylphenoxy)pentanoic acid] |  |  | 15 | 59 | 
40 | 20 | CCc1cc(C(=O)c2cccc(C(=O)O)c2)c(O)cc1OCCCCC#N [Example 92] |  |  | 5 | 38 | 
42 | 15 | CCc1cc(C(C)=O)c(O)cc1OCc1cccc(Cl)c1 [Example 56, 4-(3-Chlorobenzyloxy)-5-ethyl-2-hydroxyacetophenone] |  | 6 |  |  | 
100 | 61 | CCc1cc(C(C)=O)c(O)cc1OCCCCCCC(=O)N(C)C [Example 98, 7-(4-Acetyl-2-ethyl-5-hydroxyphenoxy)-N,N-dimethylheptanamide] |  |  | 14 | 85 | 17
35 | 13 | CCCc1cc(C(C)=O)c(Cl)cc1OCCCCC#N [Example 15, 5-(4-Acetyl-5-chloro-2-propylphenoxy)-pentanenitrile] |  |  | 33 | 91 | 
48 | 23 | CCc1cc(C(=O)c2ccccc2)c(O)cc1OCCCCC#N [Example 130, 5-(4-Benzoyl-2-ethyl-5-hydroxyphenoxy)pentane-nitrile] |  |  | 41 | 99 | 
10 | 6 | C=CCc1cc(C(=O)CCCCCCCCC)c(O)cc1OCCCCC#N [Example 107, 5-[5-Hydroxy-4-(1-oxodecyl)-2-allylphenoxy]pentanenitrile] |  |  | 47 | 26 | 
37 | 7 | CCCCc1cc(C(C)=O)c(O)cc1OCCCCC#N [Example 30, 5-(4-Acetyl-2-butyl-5-hydroxyphenoxy)-pentanenitrile] |  |  | 32 | 91 | 
40 | 7 | CC(=O)c1cc(CO)c(OCCCCCCC#N)cc1O [Example 36, 7-[4-Acetyl-5-hydroxy-2-(hydroxymethyl)-phenoxy]heptanenitrile] |  |  | 15 | 75 | 
58 | 23 | CCc1cc(C(C)=O)c(O)cc1OCc1cccc(SC)c1 [Example 59, 4-(3-Methylmercaptobenzyloxy)-5-ethyl-2-hydroxyacetophenone] |  | 0 |  |  | 
